{"source": "patent US20120253078A1", "about": "“Agent for Improving Carcass Performance in Finishing Hogs” (IGENE BIOTECHNOLOGY, INC., priority 2007, published 2012)", "key": {"[1]": {"conditions": "cited from earlier work"}, "[2]": {"experiment": "Growth performance of finishing pigs fed increasing levels of astaxanthin (d 0 to 26)", "assay_type": "in vivo, pigs (barrows, PIC TR4×C22 cross)", "conditions": "for ADFI / ADG / F/G / Final Wt.: d 0 to 26", "protocol": "Procedures used in the experiment were approved by the Kansas State University Animal Care and Use Committee. The project was conducted at the KSU Swine Teaching and Research Farm. Pigs were housed in an environmentally regulated finishing building with pens over a totally slatted floor that provided approximately 8 ft^2 per pig. Each pen was equipped with a dry self-feeder and one nipple waterer, thereby providing ad libitum access to feed and water. The facility was a mechanically ventilated room with a pull-plug manure storage pit.\n(§1) Forty-eight barrows (PIC, TR4×C22 cross) averaging 215 lb were used in the study. Pigs were blocked by weight and randomly allotted to one of the four dietary treatments with two pigs per pen and six pens per treatment. Experimental diets were provided in meal form and astaxanthin (0, 5, 10 and 20 ppm) was added to the control diet at the expense of corn starch to achieve the dietary treatments (Table 1). In Table 1, CP is crude protein; P is […]; ME is metabolizable energy; and TID is true ileal digestible. Pigs and feeders were weighed on day (d) 0, 7, 14, 21 and 26 to determine the growth performance criteria of average daily gain (ADG), average daily food intake (ADFI), and feed conversion (F/G).\n(§2) Data were analyzed as a randomized complete block design using the PROC MIXED procedure of SAS with pen as the experimental unit. Linear and quadratic polynomial contrasts were used to determine the effect of increasing astaxanthin.\n(§3) The source of natural astaxanthin used in the example was Phaffia rhodozyma which is commercially available under the trade name Aquasta® containing 10,000 ppm astaxanthin, by weight."}, "[3]": {"conditions": "5 ppm astaxanthin in the feed; cited from earlier work"}, "[4]": {"experiment": "Carcass characteristics and loin eye color of finishing pigs fed astaxanthin", "assay_type": "in vivo, pigs (barrows, PIC TR4×C22 cross)", "conditions": "for Loin eye area / Loin eye color CIE L* / Loin eye color CIE a* / Loin eye color CIE b*: 10th rib; for Loin eye area / Backfat-1st rib / Backfat-10th rib / Backfat-Last Lumbar / Backfat-Last rib: 24-h postmortem; for Loin eye color CIE L* / Loin eye color CIE a* / Loin eye color CIE b*: 30 minutes bloom time", "protocol": "as §1\nOn d 27, one pig per pen was transported to the KSU meats lab for humane slaughter and collection of carcass data. Hot carcass weight was collected immediately after evisceration. First-rib, tenth-rib, last-rib, and last-lumbar backfat depth, as well as loin eye area at the 10th-rib, were collected from the right half of each carcass 24-h postmortem. Additionally, each carcass was evaluated for loin muscle color at the 10th-rib with a Hunter MiniScan instrument to measure CIE L*, a* and b*, known color parameters relating to brightness, red-to-green coloration and yellow-to-blue coloration, as known in the art. That was performed after 30 minutes of bloom time, the time to oxygenate myoglobin thereby obtaining maximal pink or red coloration, for each loin muscle surface.\nas §2, §3"}, "[5]": {"conditions": "astaxanthin 5, 10, 20 ppm in diet"}, "[6]": {"conditions": "5 ppm astaxanthin in diet for 26 d"}, "[7]": {"conditions": "5 ppm astaxanthin in diet for 26 d before slaughter"}, "[8]": {"conditions": "10 ppm astaxanthin in diet for 26 d"}, "[9]": {"conditions": "10 ppm astaxanthin in diet for 26 d before slaughter"}, "[10]": {"conditions": "20 ppm astaxanthin in diet for 26 d"}, "[11]": {"conditions": "20 ppm astaxanthin in diet for 26 d before slaughter"}}}
{"smiles": "CC1=C(/C=C/C(C)=C/C=C/C(C)=C/C=C/C=C(C)/C=C/C=C(C)/C=C/C2=C(C)C(=O)C(O)CC2(C)C)C(C)(C)CC(O)C1=O", "note": "(stereo not drawn) [Astaxanthin, 3,3′-dihydroxy-β,β-carotene-4,4′dione]", "values": [{"measurement": "effect on production performance", "setting": "[1]; 0, 1.5 and 3.0 ppm astaxanthin in the diet", "value": "no significant effect"}, {"measurement": "effect on dressing percentage, backfat thickness and loin muscle area", "setting": "[1]; with increasing dietary astaxanthin level (0, 1.5, 3.0 ppm)", "value": "linear effect"}, {"measurement": "ADFI", "setting": "[2]; 5 ppm astaxanthin in diet", "value": 6.76, "unit": "lb"}, {"measurement": "ADG", "setting": "[2]; 5 ppm astaxanthin in diet", "value": 2.23, "unit": "lb"}, {"measurement": "F/G", "setting": "[2]; 5 ppm astaxanthin in diet", "value": 3.05}, {"measurement": "Final Wt.", "setting": "[2]; 5 ppm astaxanthin in diet", "value": 273, "unit": "lb"}, {"measurement": "ADFI", "setting": "[2]; 10 ppm astaxanthin in diet", "value": 6.24, "unit": "lb"}, {"measurement": "ADG", "setting": "[2]; 10 ppm astaxanthin in diet", "value": 2.03, "unit": "lb"}, {"measurement": "F/G", "setting": "[2]; 10 ppm astaxanthin in diet", "value": 3.08}, {"measurement": "Final Wt.", "setting": "[2]; 10 ppm astaxanthin in diet", "value": 268, "unit": "lb"}, {"measurement": "ADFI", "setting": "[2]; 20 ppm astaxanthin in diet", "value": 6.20, "unit": "lb"}, {"measurement": "ADG", "setting": "[2]; 20 ppm astaxanthin in diet", "value": 1.99, "unit": "lb"}, {"measurement": "F/G", "setting": "[2]; 20 ppm astaxanthin in diet", "value": 3.16}, {"measurement": "Final Wt.", "setting": "[2]; 20 ppm astaxanthin in diet", "value": 267, "unit": "lb"}, {"measurement": "ADG versus control pigs", "setting": "[2]; [5]", "value": "not significantly different"}, {"measurement": "F/G versus control pigs", "setting": "[2]; [5]", "value": "not significantly different"}, {"measurement": "average daily feed intake, trend", "setting": "[2]; with increasing level of astaxanthin (0, 5, 10, 20 ppm)", "value": "tended to decrease"}, {"measurement": "performance of sows (stillborn in the litter, parity)", "setting": "[3]", "value": "improved performance of sows"}, {"measurement": "percent fat-free lean (PFFL), comparison of doses", "setting": "[4]; 5 or 10 ppm astaxanthin versus 0 or 20 ppm, p<0.10", "value": "greatest percent fat-free lean"}, {"measurement": "Loin eye area", "setting": "[4]; [6]", "value": 7.72, "unit": "sq. in."}, {"measurement": "Loin eye color CIE L*", "setting": "[4]; [6]", "value": 55.3}, {"measurement": "Loin eye color CIE a*", "setting": "[4]; [6]", "value": 10.1}, {"measurement": "Loin eye color CIE b*", "setting": "[4]; [6]", "value": 14.8}, {"measurement": "Backfat-1st rib", "setting": "[4]; [6]", "value": 1.40, "unit": "in."}, {"measurement": "Backfat-10th rib", "setting": "[4]; [6]", "value": 0.65, "unit": "in."}, {"measurement": "Backfat-Last Lumbar", "setting": "[4]; [6]", "value": 0.60, "unit": "in."}, {"measurement": "Backfat-Last rib", "setting": "[4]; [6]", "value": 0.65, "unit": "in."}, {"measurement": "Fat-Free Lean", "setting": "[4]; [7]", "value": 55.6, "unit": "%"}, {"measurement": "Hot Carcass Wt.", "setting": "[4]; [7]", "value": 192, "unit": "lb"}, {"measurement": "Live Wt.", "setting": "[4]; [7]", "value": 273, "unit": "lb"}, {"measurement": "Standardized Fat-Free Lean", "setting": "[4]; [7]", "value": 107, "unit": "lb"}, {"measurement": "Yield", "setting": "[4]; [7]", "value": 70.6, "unit": "%"}, {"measurement": "Loin eye area", "setting": "[4]; [8]", "value": 7.58, "unit": "sq. in."}, {"measurement": "Loin eye color CIE L*", "setting": "[4]; [8]", "value": 58.9}, {"measurement": "Loin eye color CIE a*", "setting": "[4]; [8]", "value": 8.2}, {"measurement": "Loin eye color CIE b*", "setting": "[4]; [8]", "value": 14.4}, {"measurement": "Backfat-1st rib", "setting": "[4]; [8]", "value": 1.33, "unit": "in."}, {"measurement": "Backfat-10th rib", "setting": "[4]; [8]", "value": 0.65, "unit": "in."}, {"measurement": "Backfat-Last Lumbar", "setting": "[4]; [8]", "value": 0.56, "unit": "in."}, {"measurement": "Backfat-Last rib", "setting": "[4]; [8]", "value": 0.67, "unit": "in."}, {"measurement": "Fat-Free Lean", "setting": "[4]; [9]", "value": 55.5, "unit": "%"}, {"measurement": "Hot Carcass Wt.", "setting": "[4]; [9]", "value": 191, "unit": "lb"}, {"measurement": "Live Wt.", "setting": "[4]; [9]", "value": 271, "unit": "lb"}, {"measurement": "Standardized Fat-Free Lean", "setting": "[4]; [9]", "value": 106, "unit": "lb"}, {"measurement": "Yield", "setting": "[4]; [9]", "value": 70.6, "unit": "%"}, {"measurement": "Loin eye area", "setting": "[4]; [10]", "value": 7.28, "unit": "sq. in."}, {"measurement": "Loin eye color CIE L*", "setting": "[4]; [10]", "value": 56.2}, {"measurement": "Loin eye color CIE a*", "setting": "[4]; [10]", "value": 10.3}, {"measurement": "Loin eye color CIE b*", "setting": "[4]; [10]", "value": 15.1}, {"measurement": "Backfat-1st rib", "setting": "[4]; [10]", "value": 1.41, "unit": "in."}, {"measurement": "Backfat-10th rib", "setting": "[4]; [10]", "value": 0.70, "unit": "in."}, {"measurement": "Backfat-Last Lumbar", "setting": "[4]; [10]", "value": 0.57, "unit": "in."}, {"measurement": "Backfat-Last rib", "setting": "[4]; [10]", "value": 0.64, "unit": "in."}, {"measurement": "Fat-Free Lean", "setting": "[4]; [11]", "value": 54.5, "unit": "%"}, {"measurement": "Hot Carcass Wt.", "setting": "[4]; [11]", "value": 189, "unit": "lb"}, {"measurement": "Live Wt.", "setting": "[4]; [11]", "value": 270, "unit": "lb"}, {"measurement": "Standardized Fat-Free Lean", "setting": "[4]; [11]", "value": 103, "unit": "lb"}, {"measurement": "Yield", "setting": "[4]; [11]", "value": 70.3, "unit": "%"}, {"measurement": "carcass traits and meat quality, benefit over lower doses", "setting": "[4]; 20 ppm astaxanthin in the diet, optimum 5 to 10 ppm", "value": "no additional benefit"}, {"measurement": "backfat depth measured at the first rib, tenth rib and last rib, versus control", "setting": "[4]; pigs fed astaxanthin, p<0.10", "value": "less backfat depth"}]}
